Source: article PMC3073677 (Journal of molecular graphics & modelling, 2010)
Read-outs that look alike come from different tables or passages of the source. Each block holds one molecule with its values, some of them ahead of it.

Experiments:
[1] = target: T1, human DHFR (Homo sapiens, UniProt P00374); experiment: Human DHFR enzyme inhibition assay; format: biochemical
T1 sequence (P00374 1-187): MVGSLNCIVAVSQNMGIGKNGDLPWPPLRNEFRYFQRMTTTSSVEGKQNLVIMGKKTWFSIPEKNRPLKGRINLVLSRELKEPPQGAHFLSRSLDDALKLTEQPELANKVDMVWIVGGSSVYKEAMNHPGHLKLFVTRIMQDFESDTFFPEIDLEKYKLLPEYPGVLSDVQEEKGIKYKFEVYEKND

[2] = system: DHFR; details: cited from earlier work

IC50 [1]: < 100 nM
Molecule: CCc1nc(N)nc(N)c1C#CCc1cc(OC)c(OC)c(OC)c1 [Compound 35, 2,4-diamino-5-(3-(3,4,5-trimethoxyphenyl)prop-1-ynyl)-6-ethylpyrimidine]

Molecule: N-α-(4-amino-4-deoxypteroyl)-N δ-hemiphthaloyl-L-ornithine [PT523]
IC50 ([2]; classical inhibitors): 12.2 nM
